We go through 15 molecules from patent US9073955B2, “2-amino-4-arylthiazole compounds as TRPA1 antagonists” (Glenmark Pharmaceuticals, S.A., priority 2010, dated 2015).

What is called inhibition is the percentage by which the read-out fell short of the control. By IC50 is commonly meant the midpoint of a concentration-inhibition curve.

This test deals with T1, Human TRPA1 (Homo sapiens, UniProt O75762).
T1 construct: expressed in transfected cells; host or cells: CHO cells (grown with 400 μg/ml G-418)
T1 sequence (O75762 whole entry): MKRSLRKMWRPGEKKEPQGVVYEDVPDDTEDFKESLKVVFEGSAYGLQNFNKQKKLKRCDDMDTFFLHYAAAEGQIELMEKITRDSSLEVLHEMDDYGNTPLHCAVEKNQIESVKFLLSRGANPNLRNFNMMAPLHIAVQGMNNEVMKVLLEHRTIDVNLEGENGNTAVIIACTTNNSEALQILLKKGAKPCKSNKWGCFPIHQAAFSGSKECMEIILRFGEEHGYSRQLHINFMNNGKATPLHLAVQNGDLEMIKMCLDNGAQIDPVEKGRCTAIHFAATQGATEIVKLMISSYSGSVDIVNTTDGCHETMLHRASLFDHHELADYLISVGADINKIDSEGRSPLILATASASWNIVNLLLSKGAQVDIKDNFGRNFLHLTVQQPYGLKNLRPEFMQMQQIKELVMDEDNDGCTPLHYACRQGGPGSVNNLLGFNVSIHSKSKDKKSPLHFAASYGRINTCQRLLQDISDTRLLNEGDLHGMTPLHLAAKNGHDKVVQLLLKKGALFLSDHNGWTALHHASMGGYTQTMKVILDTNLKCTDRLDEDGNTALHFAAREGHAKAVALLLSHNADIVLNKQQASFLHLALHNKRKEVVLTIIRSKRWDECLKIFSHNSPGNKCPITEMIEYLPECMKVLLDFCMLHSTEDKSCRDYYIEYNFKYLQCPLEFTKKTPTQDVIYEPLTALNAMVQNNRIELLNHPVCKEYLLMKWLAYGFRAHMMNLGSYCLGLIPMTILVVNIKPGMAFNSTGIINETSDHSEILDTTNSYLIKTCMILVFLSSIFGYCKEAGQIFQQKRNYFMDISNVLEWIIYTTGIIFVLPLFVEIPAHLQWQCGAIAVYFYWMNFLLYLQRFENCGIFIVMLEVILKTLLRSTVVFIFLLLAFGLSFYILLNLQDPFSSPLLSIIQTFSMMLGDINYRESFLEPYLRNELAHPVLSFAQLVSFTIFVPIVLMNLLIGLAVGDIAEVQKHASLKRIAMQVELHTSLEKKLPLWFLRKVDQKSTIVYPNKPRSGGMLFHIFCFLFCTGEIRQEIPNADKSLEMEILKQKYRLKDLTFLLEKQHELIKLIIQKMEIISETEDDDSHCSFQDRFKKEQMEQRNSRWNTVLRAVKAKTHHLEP
Nature of the test: 45Calcium uptake assay: inhibition of AITC induced cellular uptake of radioactive calcium. It is filed as cell-based. The conditions noted are these: human TRPA1 expressing CHO cells, AITC 30 μM. As for the experimental part:
The illustrative examples of the present invention were screened for TRPA1 activity according to a modified procedure described in (a) Tóth, A. et al. Life Sciences, 2003, 73, 487-498. ([…]. et al, Proc. Natl. Acad. Sci. U.S.A., 2007, 104, 13525-13530. The screening of the compounds can be carried out by other methods and procedures known to persons skilled in the art. Screening for TRPA1 Antagonist Using the ^45Calcium Uptake Assay: The inhibition of TRPA1 receptor activation was measured as inhibition of allyl isothiocyanate (AITC) induced cellular uptake of radioactive calcium. Test compounds were dissolved in 100% DMSO to prepare 10 mM stock and then diluted using plain medium with 0.1% BSA and 1.8 mM CaCl2 to get the desired concentration. The final concentration of DMSO in the reaction was 0.5% (v/v). Human TRPA1 expressing CHO cells were grown in F-12 DMEM medium with 10% FBS, 1% penicillin-streptomycin solution, and 400 μg/ml of G-418. Cells were seeded 24 h prior to the assay in 96 well plates so as to get 50,000 cells per well on the day of experiment. Cells were treated with the test compounds for 10 minutes followed by the addition of AITC at a final concentration of 30 μM and 5 μCi/ml^45Ca^+2 for 3 minutes. Cells were washed and lysed using a buffer containing 1% Triton X-100, 0.1% deoxycholate and 0.1% SDS. Radioactivity in the lysate was measured in a Packard TopCount after addition of liquid scintillant. (Toth et al, Life Sciences (2003) 73, 487-498; McNamara C R et al, Proceedings of the National Academy of Sciences, (2007) 104, 13525-13530). Concentration response curves were plotted as a % of maximal response obtained in the absence of test antagonist. IC50 values can be calculated from concentration response curve by nonlinear regression analysis using GraphPad PRISM software.

Setting [1] is: 1.0 μM, read-out: Percentage inhibition at 1.0 μM.
The mark [2] stands for this setting: 10.0 μM, read-out: Percentage inhibition at 10.0 μM.
Setting [3] is: CHO, read-out: Percentage inhibition at 1.0 μM, 1.0 μM.
Setting [4] is: CHO, read-out: Percentage inhibition at 10.0 μM, 10.0 μM.

Where a name gives a salt, the structure may show the parent alone. Read-outs that look alike come from different tables or passages of the source. Some results are limits rather than exact numbers.

With `Cc1oc2c(c1CC(=O)/N=c1\scc(-c3ccc(C(F)(F)F)c(F)c3F)n1COP(=O)(O)O)c(=O)n(C)c(=O)n2C` [Example 27, 4-[2,3-Difluoro-4-(trifluoromethyl)phenyl]-2-{[(1,3,6-trimethyl-2,4-dioxo-1,2,3,4-tetrahydrofuro[2,3-d]pyrimidin-5-yl)acetyl]imino}-1,3-thiazol-3(2H)-yl]methyl dihydrogen phosphate], the concentration for half-maximal inhibition (IC50) is < 100 nM. Further, under setting [1], the inhibition at 1 µM is 93.8%. The inhibition at 10 µM under setting [2] was 99.3%.

Take `CC(C)C(=O)OCn1c(-c2ccc(C(F)(F)F)c(F)c2)cs/c1=N\C(=O)Cc1csc2c1c(=O)n(C)c(=O)n2C` [Example 1, [2-{[(1,3-Dimethyl-2,4-dioxo-1,2,3,4-tetrahydrothieno[2,3-d]pyrimidin-5-yl)acetyl]imino}-4-[3-fluoro-4-(trifluoromethyl)phenyl]-1,3-thiazol-3 (2H)-yl]methyl-2-methyl propanoate]: the 50% inhibitory concentration (IC50) fell in the range of 100 to 500 nM. For the same molecule, under setting [1], the inhibition at 1 µM was found to be 68.1%. The inhibition at 10 µM under setting [2] worked out at 90.3%.

Turning to `CCc1sc2c(c1CC(=O)/N=c1\scc(-c3ccc(C(F)(F)F)c(F)c3)n1COP(=O)(O)O)c(=O)n(C)c(=O)n2C` [Example 18, Disodium[2-{[(6-ethyl-1,3-dimethyl-2,4-dioxo-1,2,3,4-tetrahydrothieno[2,3-d]pyrimidin-5-yl)acetyl]imino}-4-[3-fluoro-4-(trifluoromethyl)phenyl]-1,3-thiazol-3(2H)-yl]methyl phosphate], the inhibition at 1 µM under setting [3] came to 30%. The inhibition at 10 µM under setting [4] amounted to 88.7%.

As for `Cn1c(=O)c2c(CC(=O)N=c3scc(-c4ccc(C(F)(F)F)c(F)c4F)n3COP(=O)(O)O)nsc2n(C)c1=O` [Example 32, Disodium-(4-(2,3-difluoro-4-(trifluoromethyl)phenyl)-2-((2-(5,7-dimethyl-4,6-dioxo-4,5,6,7-tetrahydroisothiazolo[5,4-d]pyrimidin-3-yl)acetyl)imino)thiazol-3 (2H)-yl)methyl phosphate], the IC50 was > 500 nM. For the same molecule, the inhibition at 1 µM under setting [1] amounted to 13.8%. Further, under setting [2], the inhibition at 10 µM is 81%.

`CC(C)C(=O)OCn1c(-c2ccc(F)c(C(F)(F)F)c2F)cs/c1=N\C(=O)Cc1csc2c1c(=O)n(C)c(=O)n2C` [Example 2, [4-[2,4-Difluoro-3-(trifluoromethyl)phenyl]-2-{[(1,3-dimethyl-2,4-dioxo-1,2,3,4-tetrahydrothieno[2,3-d]pyrimidin-5-yl)acetyl]imino}-1,3-thiazol-3(2H)-yl]methyl-2-methylpropanoate]: the half-inhibitory concentration (IC50) is > 500 nM. Further, the inhibition at 1 µM under setting [1] stood at 54.8%. Moreover, under setting [2], the inhibition at 10 µM is 70.2%.

Turning to `CC(C)[C@H](N)C(=O)OCn1c(-c2ccc(F)c(C(F)(F)F)c2F)cs/c1=N\C(=O)Cc1csc2c1c(=O)n(C)c(=O)n2C` [Example 5, [4-[2,4-Difluoro-3-(trifluoromethyl)phenyl]-2-{[(1,3-dimethyl-2,4-dioxo-1,2,3,4-tetrahydrothieno[2,3-d]pyrimidin-5-yl)acetyl]imino}-1,3-thiazol-3 (2H)-yl]methyl L-valinate hydrochloride], the IC50 is < 100 nM. The inhibition at 1 µM (CHO, 1.0 μM, read-out: Percentage inhibition at 1.0 μM) turned out to be 98.6%. The inhibition at 10 µM (CHO, 10.0 μM, read-out: Percentage inhibition at 10.0 μM) was determined as 99.9%.

Regarding `Cc1sc2c(c1CC(=O)/N=c1\scc(-c3ccc(F)c(C(F)(F)F)c3F)n1COP(=O)(O)O)c(=O)n(C)c(=O)n2C` [Example 16, Disodium(4-(2,4-difluoro-3-(trifluoromethyl)phenyl)-2-((2-(1,3,6-trimethyl-2,4-dioxo-1,2,3,4-tetrahydrothieno[2,3-d]pyrimidin-5-yl)acetyl)imino)thiazol-3(2H)-yl)methyl phosphate], the IC50 was > 500 nM. In addition, the inhibition at 1 µM under setting [3] turned out to be 48.2%. The inhibition at 10 µM under setting [4] was determined as 92.7%.

Take `Cc1sc2c(c1CC(=O)/N=c1\scc(-c3ccc(F)c(C(F)(F)F)c3F)n1COP(=O)(O)O)c(=O)n(C)c(=O)n2C` [Example 15, 4-(2,4-Difluoro-3-(trifluoromethyl)phenyl)-2-((2-(1,3,6-trimethyl-2,4-dioxo-1,2,3,4-tetrahydrothieno[2,3-(1]pyrimidin-5-yl)acetyl)imino)thiazol-3 (2H)-yl)methyl dihydrogen phosphate]: the IC50 lay in the range of 100 to 500 nM. Besides, under setting [1], the inhibition at 1 µM amounted to 81.2%. Under setting [2], the inhibition at 10 µM is 98.5%.

On to `CC[C@H](C)[C@H](N)C(=O)OCn1c(-c2ccc(OC(F)(F)F)c(Cl)c2)cs/c1=N\C(=O)Cc1c(C)oc2c1c(=O)n(C)c(=O)n2C` [Example 22, [4-[3-Chloro-4-(trifluoromethoxy)phenyl]-2-{[(1,3,6-trimethyl-2,4-dioxo-1,2,3,4-tetrahydrofuro[2,3-d]pyrimidin-5-yl)acetyl]imino}-1,3-thiazol-3 (2H)-yl]methyl L-isoleucinate hydrochloride], for which the half-maximal inhibitory concentration (IC50) lay in the range of 100 to 500 nM. Also, the inhibition at 1 µM under setting [1] is 99.2%. Besides, under setting [2], the inhibition at 10 µM amounted to 99.6%.

`Cn1c(=O)c2c(CC(=O)/N=c3\scc(-c4ccc(F)c(C(F)(F)F)c4F)n3COC(=O)[C@@H]3CCCN3)csc2n(C)c1=O` [Example 8, [4-[2,4-Difluoro-3-(trifluoromethyl)phenyl]-2-{[(1,3-dimethyl-2,4-dioxo-1,2,3,4-tetrahydrothieno[2,3-d]pyrimidin-5-yl)acetyl]imino}-1,3-thiazol-3(2H)-yl]methyl L-prolinate hydrochloride]: the IC50 was < 100 nM. Moreover, the inhibition at 1 µM under setting [1] was 96.5%. The inhibition at 10 µM under setting [2] stood at 98.3%.

For the molecule `Cn1c(=O)c2c(CC(=O)/N=c3\scc(-c4ccc(C(F)(F)F)c(F)c4F)n3COP(=O)(O)O)nsc2n(C)c1=O` [Example 31, [4-[2,3-Difluoro-4-(trifluoromethyl)phenyl]-2-{[(5,7-dimethyl-4,6-dioxo-4,5,6,7-tetrahydro[1,2]thiazolo[5,4-d]pyrimidin-3-yl)acetyl]imino}-1,3-thiazol-3 (2H)-yl]methyl dihydrogen phosphate], the IC50 is > 500 nM. Also, the inhibition at 1 µM under setting [1] worked out at 60%. Further, under setting [2], the inhibition at 10 µM worked out at 99.2%.

Turning to `Cn1c(=O)c2c(CC(=O)/N=c3\scc(-c4ccc(C(F)(F)F)c(F)c4)n3COP(=O)(O)O)csc2n(C)c1=O` [Example 12, Disodium[2-{[(1,3-dimethyl-2,4-dioxo-1,2,3,4-tetrahydrothieno[2,3-d]pyrimidin-5-yl)acetyl]imino}-4-[3-fluoro-4-(trifluoromethyl)phenyl]-1,3-thiazol-3 (2H)-yl]methyl phosphate], the IC50 was in the range of 100 to 500 nM.

For the molecule `Cn1c(=O)c2c(CC(=O)/N=c3\scc(-c4ccc(C(F)(F)F)c(F)c4)n3COC(=O)C3CCNCC3)csc2n(C)c1=O` [Example 9, [2-{[(1,3-Dimethyl-2,4-dioxo-1,2,3,4-tetrahydrothieno[2,3-d]pyrimidin-5-yl)acetyl]imino}-4-[3-fluoro-4-(trifluoromethyl)phenyl]-1,3-thiazol-3(2H)-yl]methylpiperidine-4-carboxylate hydrochloride], the IC50 lay in the range of 100 to 500 nM. Moreover, the inhibition at 1 µM under setting [1] came to 80.1%. Moreover, the inhibition at 10 µM under setting [2] amounted to 94.8%.

For the molecule `Cc1oc2c(c1CC(=O)/N=c1\scc(-c3ccc(OC(F)(F)F)c(Cl)c3)n1COC(=O)C(C)(C)C)c(=O)n(C)c(=O)n2C` [Example 19, [4-[3-Chloro-4-(trifluoromethoxy)phenyl]-2-{[(1,3,6-trimethyl-2,4-dioxo-1,2,3,4-tetrahydrofuro[2,3-d]pyrimidin-5-yl)acetyl]imino}-1,3-thiazol-3 (2H)-yl]methyl 2,2-dimethylpropanoate], the half-inhibitory concentration (IC50) lay in the range of 100 to 500 nM. Under setting [1], the inhibition at 1 µM was 70.3%. Besides, the inhibition at 10 µM under setting [2] came to 96.7%.

For the molecule `Cc1oc2c(c1CC(=O)/N=c1\scc(-c3ccc(OC(F)(F)F)c(Cl)c3)n1COC(=O)[C@@H](N)Cc1ccccc1)c(=O)n(C)c(=O)n2C` [Example 24, 4-[3-Chloro-4-(trifluoromethoxy)phenyl]-2-{[(1,3,6-trimethyl-2,4-dioxo-1,2,3,4-tetrahydrofuro[2,3-d]pyrimidin-5-yl)acetyl]imino}-1,3-thiazol-3(2H)-yl]methyl L-phenylalaninate hydrochloride], the IC50 was < 100 nM. For the same molecule, the inhibition at 1 µM under setting [1] was 98.1%. Besides, under setting [2], the inhibition at 10 µM amounted to 99.8%.
